The numbers were not newly measured in patent US9677978B2, “Fixative solution, for fixation and preservation of biological samples” (priority 2011, dated 2017), which cites them from elsewhere.

Molecules are shown by their SMILES.

For this data set the following is noted: in 20 months; commercial biocide solutions stabilized by antioxidants.

For the compound `N#CC(Br)(Br)C(N)=O` [DBPNA, 2,2-Dibromo-3-nitrilopropionamide], the “degradation of DBPNA” value is reported as below 10%.
